# In PubChem BioAssay (NCI):
#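 Interpolation was linear, between the two tested concentrations surrounding the appropriate level; five concentrations were tested over 48 hours in 96-well plates. At the TGI there is no net growth.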
# Tests used:
# Experiment in all cases: NCI tumour cell line growth inhibition, 48 h
# NCI-H226 lung = system: NCI-H226 lung
# LXFL 529 NSCLC = system: LXFL 529 NSCLC
# OVCAR-3 ovarian = system: OVCAR-3 ovarian
# OVCAR-8 ovarian = system: OVCAR-8 ovarian
# U251 CNS = system: U251 CNS
# CCRF-CEM leukemia = system: CCRF-CEM leukemia
# HOP-18 NSCLC = system: HOP-18 NSCLC
# ACHN renal = system: ACHN renal
# SNB-78 CNS = system: SNB-78 CNS
# NCI-H522 lung = system: NCI-H522 lung
# SK-MEL-2 melanoma = system: SK-MEL-2 melanoma
# TK-10 renal = system: TK-10 renal
# HOP-62 NSCLC = system: HOP-62 NSCLC
# HT29 colon = system: HT29 colon
# MALME-3M melanoma = system: MALME-3M melanoma
# SW-620 colon = system: SW-620 colon
# RPMI-8226 leukemia = system: RPMI-8226 leukemia
# M14 melanoma = system: M14 melanoma
# KM12 colon = system: KM12 colon
# HCC-2998 colon = system: HCC-2998 colon
# HCT-15 colon = system: HCT-15 colon
# XF 498 CNS = system: XF 498 CNS
# SR leukemia = system: SR leukemia
# HL-60(TB) leukemia = system: HL-60(TB) leukemia
# A549 NSCLC = system: A549 NSCLC
# OVCAR-4 ovarian = system: OVCAR-4 ovarian
# DLD-1 colon = system: DLD-1 colon
# UO-31 renal = system: UO-31 renal
# HOP-92 NSCLC = system: HOP-92 NSCLC
# CAKI-1 renal = system: CAKI-1 renal
# UACC-257 melanoma = system: UACC-257 melanoma
# UACC-62 melanoma = system: UACC-62 melanoma
# HCT-116 colon = system: HCT-116 colon
# SK-MEL-5 melanoma = system: SK-MEL-5 melanoma
# SNB-19 CNS = system: SNB-19 CNS
# LOX IMVI melanoma = system: LOX IMVI melanoma
# 786-0 renal = system: 786-0 renal
# SK-MEL-28 melanoma = system: SK-MEL-28 melanoma
# NCI-H460 lung = system: NCI-H460 lung
# SN12C renal = system: SN12C renal
# RXF 393 renal = system: RXF 393 renal
# SF-268 CNS = system: SF-268 CNS
# SNB-75 CNS = system: SNB-75 CNS
# IGROV1 ovarian = system: IGROV1 ovarian
# NCI-H23 lung = system: NCI-H23 lung
# OVCAR-5 ovarian = system: OVCAR-5 ovarian
# K-562 leukemia = system: K-562 leukemia
# A498 renal = system: A498 renal
# DMS 273 small cell lung = system: DMS 273 small cell lung
# SF-539 CNS = system: SF-539 CNS
# KM20L2 colon = system: KM20L2 colon
# COLO 205 colon = system: COLO 205 colon
# MOLT-4 leukemia = system: MOLT-4 leukemia
# SF-295 CNS = system: SF-295 CNS
structure (smiles),measurement,setting,value
Cc1ccc(C)c(NC(=O)CC/C(=N\NC(=O)c2c(O)ccc3ccccc23)C(C)C(=O)c2ccc(O)cc2)c1 (centres undefined),TGI,NCI-H226 lung,98.8 µM
same,TGI,LXFL 529 NSCLC,> 100 µM
same,TGI,OVCAR-3 ovarian,89.2 µM
same,TGI,OVCAR-8 ovarian,75.9 µM
same,TGI,U251 CNS,> 100 µM
same,TGI,CCRF-CEM leukemia,71 µM
same,TGI,HOP-18 NSCLC,83.8 µM
same,TGI,ACHN renal,84.6 µM
same,TGI,SNB-78 CNS,> 100 µM
same,TGI,NCI-H522 lung,42.6 µM
same,TGI,SK-MEL-2 melanoma,> 100 µM
same,TGI,TK-10 renal,> 100 µM
same,TGI,HOP-62 NSCLC,> 100 µM
same,TGI,HT29 colon,> 100 µM
same,TGI,MALME-3M melanoma,90.2 µM
same,TGI,SW-620 colon,> 100 µM
same,TGI,RPMI-8226 leukemia,> 100 µM
same,TGI,M14 melanoma,41.4 µM
same,TGI,KM12 colon,> 100 µM
same,TGI,HCC-2998 colon,> 100 µM
same,TGI,HCT-15 colon,> 100 µM
same,TGI,XF 498 CNS,91.9 µM
same,TGI,SR leukemia,90.3 µM
same,TGI,HL-60(TB) leukemia,> 100 µM
same,TGI,A549 NSCLC,> 100 µM
same,TGI,OVCAR-4 ovarian,> 100 µM
same,TGI,DLD-1 colon,> 100 µM
same,TGI,UO-31 renal,> 100 µM
same,TGI,HOP-92 NSCLC,> 100 µM
same,TGI,CAKI-1 renal,> 100 µM
same,TGI,UACC-257 melanoma,87.1 µM
same,TGI,UACC-62 melanoma,34.3 µM
same,TGI,HCT-116 colon,> 100 µM
same,TGI,SK-MEL-5 melanoma,> 100 µM
same,TGI,SNB-19 CNS,> 100 µM
same,TGI,LOX IMVI melanoma,39.6 µM
same,TGI,786-0 renal,> 100 µM
same,TGI,SK-MEL-28 melanoma,> 100 µM
same,TGI,NCI-H460 lung,> 100 µM
same,TGI,SN12C renal,> 100 µM
same,TGI,RXF 393 renal,> 100 µM
same,TGI,SF-268 CNS,> 100 µM
same,TGI,SNB-75 CNS,> 100 µM
same,TGI,IGROV1 ovarian,> 100 µM
same,TGI,NCI-H23 lung,91.3 µM
same,TGI,OVCAR-5 ovarian,> 100 µM
same,TGI,K-562 leukemia,> 100 µM
same,TGI,A498 renal,> 100 µM
same,TGI,DMS 273 small cell lung,> 100 µM
same,TGI,SF-539 CNS,80.5 µM
same,TGI,KM20L2 colon,30 µM
same,TGI,COLO 205 colon,51.3 µM
same,TGI,MOLT-4 leukemia,> 100 µM
same,TGI,SF-295 CNS,> 100 µM
